Test results from publication PMC10709440, “High-throughput ligand profile characterization in novel cell lines expressing seven heterologous insect olfactory receptors for the detection of volatile plant biomarkers” (Scientific Reports, 2023).
Where two headings read alike, the source gives them in different places.

Columns and labels:
Drosophila OR10a = biological target: T1, Drosophila OR10a (Drosophila melanogaster, UniProt Q9VYZ1); assay: Calcium ion fluorescence (GCaMP6) assay, OR10a stable HEK293 cell line; assay type: cell-based
T1 construct: expressed in transfected cells
T1 sequence (Q9VYZ1 1-406): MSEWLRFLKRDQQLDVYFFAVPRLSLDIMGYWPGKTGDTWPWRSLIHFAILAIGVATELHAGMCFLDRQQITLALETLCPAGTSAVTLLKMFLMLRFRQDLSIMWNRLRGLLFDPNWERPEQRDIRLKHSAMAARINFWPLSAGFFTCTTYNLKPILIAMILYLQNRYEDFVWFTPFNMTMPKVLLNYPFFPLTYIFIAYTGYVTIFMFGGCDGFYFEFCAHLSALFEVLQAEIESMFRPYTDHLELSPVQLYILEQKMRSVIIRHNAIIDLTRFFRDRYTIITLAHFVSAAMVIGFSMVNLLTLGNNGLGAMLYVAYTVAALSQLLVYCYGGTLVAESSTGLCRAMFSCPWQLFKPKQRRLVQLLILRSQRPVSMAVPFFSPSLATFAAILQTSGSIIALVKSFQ
T1 sequence (Q9VNB5 1-486 partner): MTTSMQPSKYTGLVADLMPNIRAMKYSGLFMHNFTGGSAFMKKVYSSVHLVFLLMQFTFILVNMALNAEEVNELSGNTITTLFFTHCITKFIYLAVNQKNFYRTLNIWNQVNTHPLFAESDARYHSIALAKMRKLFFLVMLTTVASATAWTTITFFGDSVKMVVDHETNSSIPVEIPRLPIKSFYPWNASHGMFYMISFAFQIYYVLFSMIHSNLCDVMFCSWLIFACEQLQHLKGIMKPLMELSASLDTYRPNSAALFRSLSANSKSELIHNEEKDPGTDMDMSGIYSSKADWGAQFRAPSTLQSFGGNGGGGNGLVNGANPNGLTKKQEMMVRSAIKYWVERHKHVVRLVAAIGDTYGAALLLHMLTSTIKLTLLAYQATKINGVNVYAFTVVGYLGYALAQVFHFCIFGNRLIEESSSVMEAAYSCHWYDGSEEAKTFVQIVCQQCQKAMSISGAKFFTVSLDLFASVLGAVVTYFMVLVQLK
Outline: (§1)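 Responses are VUAA1-normalized ΔF: each VOC-evoked calcium signal, (FMAX−F0)/F0 over 30 s after injection, divided by the same line's mean 50 µM VUAA1 response. Cells were doxycycline-induced HEK293 with GCaMP6 and the cognate Drosophila OR, in HEPES buffer pH 7.3; ligands tested 0.01–100 μM.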

Drosophila OR47a = biological target: T2, Drosophila OR47a (Drosophila melanogaster, UniProt P81921); assay: Calcium ion fluorescence (GCaMP6) assay, OR47a stable HEK293 cell line; assay type: cell-based; conditions: for Average response: mean of biological replicates
T2 construct: expressed in transfected cells
T2 sequence (P81921 1-385): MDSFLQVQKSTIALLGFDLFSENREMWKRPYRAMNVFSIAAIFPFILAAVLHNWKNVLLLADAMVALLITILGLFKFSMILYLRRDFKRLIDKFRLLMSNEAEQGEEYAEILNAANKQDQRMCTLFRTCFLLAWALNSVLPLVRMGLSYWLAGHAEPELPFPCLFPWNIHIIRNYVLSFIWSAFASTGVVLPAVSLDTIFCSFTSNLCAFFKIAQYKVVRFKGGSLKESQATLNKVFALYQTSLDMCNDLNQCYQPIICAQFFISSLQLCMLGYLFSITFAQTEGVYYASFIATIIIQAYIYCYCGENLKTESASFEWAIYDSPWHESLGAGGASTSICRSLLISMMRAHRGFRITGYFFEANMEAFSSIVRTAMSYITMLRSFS
T2 sequence (Q9VNB5 1-486 partner): T1 sequence (Q9VNB5 1-486 partner)
Outline: as §1

[1] = 1 μM VOC, 50 μM VUAA1 = 1, responses not exceeding 0.05 considered 0
[2] = 10 μM VOC, 50 μM VUAA1 = 1, responses not exceeding 0.05 considered 0
[3] = 100 μM VOC, 50 μM VUAA1 = 1, responses not exceeding 0.05 considered 0
[4] = ligand concentration 1 (unit not given), threshold 0.05, below shown as 0
[5] = ligand concentration 10 (unit not given), threshold 0.05, below shown as 0
[6] = ligand concentration 100 (unit not given), threshold 0.05, below shown as 0
[7] = OR47a cell line, odorant cc. 1 µM
[8] = OR47a cell line, odorant cc. 10 µM
[9] = OR47a cell line, odorant cc. 100 µM
[10] = HEK293, 1 μM VOC, 50 μM VUAA1 = 1, responses not exceeding 0.05 considered 0, read-out: OR10a Average response (VUAA1-normalized)
[11] = HEK293, 10 μM VOC, 50 μM VUAA1 = 1, responses not exceeding 0.05 considered 0, read-out: OR10a Average response (VUAA1-normalized)
[12] = HEK293, 100 μM VOC, 50 μM VUAA1 = 1, responses not exceeding 0.05 considered 0, read-out: OR10a Average response (VUAA1-normalized)
[13] = HEK293, read-out: OR10a response (VUAA1-normalized response), VOC concentration 1 μM
[14] = HEK293, read-out: OR10a response (VUAA1-normalized response), VOC concentration 10 μM
[15] = HEK293, read-out: OR10a response (VUAA1-normalized response), VOC concentration 100 μM
[16] = HEK293, read-out: OR47a response (VUAA1-normalized response)
[17] = concentration 1, normalized fluorescence change, values below 0.05 threshold given as 0
[18] = concentration 10, normalized fluorescence change, values below 0.05 threshold given as 0
[19] = concentration 100, normalized fluorescence change, values below 0.05 threshold given as 0
[20] = HEK293, read-out: OR47a Average response (VUAA1-normalized)

Row | Compound | DF norm AVERAGE OR10a (Drosophila OR10a; [4]) | DF norm AVERAGE OR10a (Drosophila OR10a; [5]) | DF norm AVERAGE OR10a (Drosophila OR10a; [6]) | Average response (Drosophila OR47a; [7]) | Average response (Drosophila OR47a; [8]) | Average response (Drosophila OR47a; [9]) | DF norm AVERAGE OR47a (Drosophila OR47a; [4]) | DF norm AVERAGE OR47a (Drosophila OR47a; [5]) | DF norm AVERAGE OR47a (Drosophila OR47a; [6]) | activation at 1 µM (Drosophila OR10a; [10]) [%] | activation at 10 µM (Drosophila OR10a; [11]) [%] | activation at 100 µM (Drosophila OR10a; [12]) [%] | activation at 1 µM (Drosophila OR10a; [13]) [%] | activation at 10 µM (Drosophila OR10a; [14]) [%] | activation at 100 µM (Drosophila OR10a; [15]) [%] | activation at 1 µM (Drosophila OR47a; [16]) [%] | activation at 10 µM (Drosophila OR47a; [16]) [%] | activation at 100 µM (Drosophila OR47a; [16]) [%] | DF norm AVERAGE OR47a (Drosophila OR47a; [17]) | DF norm AVERAGE OR47a (Drosophila OR47a; [18]) | other results
1 | C=C(C)[C@H]1CC=C(C)CC1 [limonene] | 0 | 0 | 0.05729 | 0.0214 | 0.00 | 0.00 | 0 | 0 | 0 | – | – | – | – | – | – | – | – | – | – | – | OR10a Average response (VUAA1-normalized) (Drosophila OR10a; [1]): 0.00; OR10a Average response (VUAA1-normalized) (Drosophila OR10a; [2]): 0.00; OR10a Average response (VUAA1-normalized) (Drosophila OR10a; [3]): 0.06; OR10a response (VUAA1-normalized response) (Drosophila OR10a; VOC concentration 1 μM): 0.00; OR10a response (VUAA1-normalized response) (Drosophila OR10a; VOC concentration 10 μM): 0.00; OR10a response (VUAA1-normalized response) (Drosophila OR10a; VOC concentration 100 μM): 0.06; OR47a response (VUAA1-normalized response) (Drosophila OR47a; VOC concentration 1 μM): 0.00; OR47a response (VUAA1-normalized response) (Drosophila OR47a; VOC concentration 10 μM): 0.00; OR47a response (VUAA1-normalized response) (Drosophila OR47a; VOC concentration 100 μM): 0.00
2 | CCCCCCCCCC=O [decanal] | 0 | 0 | 0 | 0.00 | 0.00 | 0.00 | 0 | 0 | 0 | 0 | 0 | 0 | 0 | 0 | 0 | 0 | 0 | 0 | – | – | –
3 | CCCCCCCO [1-heptanol] | – | – | – | 0.00 | 0.00 | 0.0219 | – | – | – | 1.56 | 6.57 | 0 | 0 | 6.57 | 0 | 0 | 0 | 0 | 0 | 0 | DF norm AVERAGE OR47a (Drosophila OR47a; [19]): 0
4 | C=C1[C@H]2CC[C@@H]3[C@H]2C(C)(C)CCC[C@]13C [(+)-longifolene] | – | – | – | 0.00 | 0.00 | 0.0238 | – | – | – | – | – | – | – | – | – | – | – | – | 0 | 0 | OR10a Average response (VUAA1-normalized) (Drosophila OR10a; [1]): 0.08; OR10a Average response (VUAA1-normalized) (Drosophila OR10a; [2]): 0.0537; OR10a Average response (VUAA1-normalized) (Drosophila OR10a; [3]): 0.028; OR10a response (VUAA1-normalized response) (Drosophila OR10a; VOC concentration 1 μM): 0.08; OR10a response (VUAA1-normalized response) (Drosophila OR10a; VOC concentration 10 μM): 0.0537; OR10a response (VUAA1-normalized response) (Drosophila OR10a; VOC concentration 100 μM): 0.00; DF norm AVERAGE OR10a (Drosophila OR10a; [18]): 0.05372; OR47a response (VUAA1-normalized response) (Drosophila OR47a; VOC concentration 1 μM): 0.00; OR47a response (VUAA1-normalized response) (Drosophila OR47a; VOC concentration 10 μM): 0.00; OR47a response (VUAA1-normalized response) (Drosophila OR47a; VOC concentration 100 μM): 0.00; DF norm AVERAGE OR47a (Drosophila OR47a; [19]): 0
5 | Cc1ccccc1C [o-xylene] | 0 | 0 | 0 | 0.00 | 0.00 | 0.00 | 0 | 0 | 0 | – | – | – | – | – | – | – | – | – | – | – | activation at 1 µM (Drosophila OR10a; HEK293, read-out: OR10a Average response (VUAA1-normalized), 1 μM VOC, 50 μM VUAA1 = 1, responses not exceeding 0.05 considered 0): 0%; activation at 10 µM (Drosophila OR10a; HEK293, read-out: OR10a Average response (VUAA1-normalized), 10 μM VOC, 50 μM VUAA1 = 1, responses not exceeding 0.05 considered 0): 0%; activation at 100 µM (Drosophila OR10a; HEK293, read-out: OR10a Average response (VUAA1-normalized), 100 μM VOC, 50 μM VUAA1 = 1, responses not exceeding 0.05 considered 0): 0%; OR10a response (VUAA1-normalized) at 1 μM (Drosophila OR10a; OR10a cell line, VOC concentration 1 μM): 0.00; OR10a response (VUAA1-normalized) at 10 μM (Drosophila OR10a; OR10a cell line, VOC concentration 10 μM): 0.00; OR10a response (VUAA1-normalized) at 100 μM (Drosophila OR10a; OR10a cell line, VOC concentration 100 μM): 0.00; OR47a response (VUAA1-normalized) at 1 μM (Drosophila OR47a; OR47a cell line, VOC concentration 1 μM): 0.00; OR47a response (VUAA1-normalized) at 10 μM (Drosophila OR47a; OR47a cell line, VOC concentration 10 μM): 0.00; OR47a response (VUAA1-normalized) at 100 μM (Drosophila OR47a; OR47a cell line, VOC concentration 100 μM): 0.00
6 | CCCC(O)CC (stereo not shown) [3-hexanol] | – | – | – | 0.00 | 0.00 | 0.11 | – | – | – | 16 | 2.57 | 6 | 16 | 0 | 6 | 0 | 0 | 11 | 0 | 0 | activation at 1 µM (Drosophila OR47a; [20]): 0%; activation at 10 µM (Drosophila OR47a; [20]): 0%; activation at 100 µM (Drosophila OR47a; [20]): 11%; DF norm AVERAGE OR47a (Drosophila OR47a; [19]): 0.1087
